The results in this text go back to ChEMBL document CHEMBL1139038, “Design and synthesis of 3-substituted benzamide derivatives as Bcr-Abl kinase inhibitors” (Bioorg Med Chem Lett, 2006).

Some results are limits rather than exact numbers.

The subject of one experiment is K562. Put plainly: Antiproliferative activity against K562 cells. Format: functional, cell-based. The note with it: Homo sapiens.
The subject of the next experiment is U-937. Put plainly: Antiproliferative activity against U937 cells. The experiment is classed as functional, cell-based. The note with it: Homo sapiens.

For `Cc1ccc(NC(=O)c2ccc(CN3CCN(C)CC3)c(I)c2)cc1Nc1nccc(-c2cccnc2)n1`, the IC50 with K562 worked out at 0.01 µM; in the experiment with U-937 it was 6 µM.
In the experiment with U-937, `Cc1ccc(NC(=O)c2ccc(CN3CCN(C)CC3)c(C(F)(F)F)c2)cc1Nc1nccc(-c2cccnc2)n1` gave a concentration for half-maximal inhibition (IC50) of 4 µM.
In the experiment on U-937, `Cc1ccc(NC(=O)c2ccc(CN3CCN(C)CC3)c(F)c2)cc1Nc1nccc(-c2cccnc2)n1` showed a concentration for half-maximal inhibition (IC50) of 8 µM.
In the experiment with U-937, `Cc1ccc(NC(=O)c2ccc(CN3CCN(C)CC3)c(C(F)(F)F)c2)cc1Nc1nccc(-c2cncnc2)n1` gave an IC50 of 5 µM.
`Cc1ccc(NC(=O)c2ccc(CN3CC[C@@H](N(C)C)C3)c(C(F)(F)F)c2)cc1Nc1nccc(-c2cncnc2)n1`: the concentration for half-maximal inhibition (IC50) in the experiment with K562 came to 0.004 µM; with U-937, 9 µM.
On to `Cc1ccc(NC(=O)c2ccc(CN3CC(N(C)C)C3)c(C(F)(F)F)c2)cc1Nc1nccc(-c2cncnc2)n1`, for which the half-maximal inhibitory concentration (IC50) in the experiment with K562 was 0.017 µM; with U-937 it was over 100 µM.
As to `Cc1ccc(NC(=O)c2ccc(CN3CCN(C)CC3)c(Cl)c2)cc1Nc1nccc(-c2cccnc2)n1`, the figures for the concentration for half-maximal inhibition (IC50) in the experiment on K562 and in the experiment with U-937 were 0.01 µM and 9 µM, respectively.
Compound `Cc1ccc(NC(=O)c2ccc(CN3CCN(C)CC3)c(Br)c2)cc1Nc1nccc(-c2cccnc2)n1` came in with an IC50 with U-937 of 5 µM.
`Cc1ccc(NC(=O)c2ccc(CN3CC[C@H](CN(C)C)C3)c(C(F)(F)F)c2)cc1Nc1nccc(-c2cncnc2)n1`: the half-maximal inhibitory concentration (IC50) came out at 0.011 µM in the experiment on K562 and 20 µM with U-937.
In the case of `Cc1ccc(NC(=O)c2ccc(CN3CC[C@@H](CN(C)C)C3)c(C(F)(F)F)c2)cc1Nc1nccc(-c2cncnc2)n1`, the values for the half-inhibitory concentration (IC50) in the experiment with K562 and with U-937 were 0.009 µM and over 100 µM, respectively.
As to `Cc1ccc(NC(=O)c2ccc(CN3CC[C@H](N(C)C)C3)c(C(F)(F)F)c2)cc1Nc1nccc(-c2cncnc2)n1` [BAFETINIB], the half-inhibitory concentration (IC50) was determined as 0.011 µM in the experiment with K562 and 10 µM in the experiment with U-937.
Consider `Cc1ccc(NC(=O)c2ccc(CN3CCN(C)CC3)cc2)cc1Nc1nccc(-c2cccnc2)n1` [IMATINIB], for which, in the experiment on U-937, half-maximal inhibition (IC50) required 14 µM.
